Results taken from PMC6070903 (Viruses, 2018).
In brackets after ≈: the same amount, converted by molar mass.

Experiments:
S. aureus ATCC 29213 = assay: Broth microdilution MIC; type: cell-based; details: Staphylococcus aureus, ATCC29213, 24 h, 35 ± 2 °C
B. cereus ATCC 11778 = assay: Broth microdilution MIC; type: cell-based; details: Bacillus cereus, ATCC11778, 24 h, 35 ± 2 °C
E. coli ATCC 25922 = assay: Broth microdilution MIC; type: cell-based; details: Escherichia coli, ATCC25922, 24 h, 35 ± 2 °C
P. aeruginosa ATCC 27853 = assay: Broth microdilution MIC; type: cell-based; details: Pseudomonas aeruginosa, ATCC27853, 24 h, 35 ± 2 °C
C. albicans ATCC 10231 = assay: Broth microdilution MIC; type: cell-based; details: Candida albicans, ATCC10231, 48 h, 25 ± 2 °C
THP-1 cells [1] = assay: Pyocyanin-triggered ROS production in THP-1 cells, DCFH-DA; type: cell-based, human; details: 5 μM, pyocyanin 100 μM, THP-1 monocytes
[2] = test system: Gram-positive bacteria S. aureus and B. cereus; assay: Broth microdilution MIC, summary for both Gram-positive strains; type: cell-based; details: S. aureus and B. cereus together
HSV-1 strain KOS = assay: Anti-HSV-1 plaque reduction assay in Vero cells; type: cell-based, Herpes simplex virus; details: for IC50: Human alphaherpesvirus 1, HSV-1, plaque reduction, 72 h, Vero cells; for Selectivity Index CC50/IC50: HSV-1, Vero CC50 / IC50
[3] = test system: HSV-2 (clinical isolates, acyclovir-sensitive); assay: Anti-HSV-2 titer reduction assay in Vero cells; type: cell-based, Herpes simplex virus; details: for EC50: Human alphaherpesvirus 2, HSV-2, titer reduction, 48 h, Vero cells; for Selectivity Index CC50/EC50: HSV-2, Vero CC50 / EC50
in vitro = details: African green monkey
NF-κB/AP-1 = NF-κB/AP-1 activity, SEAP reporter in LPS-stimulated THP-1-XBlue-MD2-CD14 cells; type: cell-based, human; details: 5 μM, LPS 1 μg/mL, 24 h, vs vehicle
IL-1β = assay: LPS-stimulated IL-1β secretion in PMA-differentiated THP-1 macrophages, ELISA; type: cell-based, human; details: 5 μM, LPS 1 μg/mL, 24 h
TNF-α = assay: LPS-stimulated TNF-α secretion in PMA-differentiated THP-1 macrophages, ELISA; type: cell-based, human; details: 5 μM, LPS 1 μg/mL, 24 h
THP-1 cells [4] = assay: Cell viability of THP-1 cells, WST-1 assay; type: cell-based; details: Homo sapiens, WST-1, 24 h, 0.25 to 20 μM, read-out: IC50 for the THP-1 cell line (viability)
[5] = test system: HL-60 (promyelocytic leukemia) cells; set-up: method as in earlier work; details: read-out: IC50 against HL-60 cells; cited from earlier work

| MIC (S. aureus ATCC 29213) | MIC (B. cereus ATCC 11778) | MIC (E. coli ATCC 25922) | MIC (P. aeruginosa ATCC 27853) | MIC (C. albicans ATCC 10231) | MIC range against both Gram-positive strains [2] | IC50 (HSV-1 strain KOS) | EC50 [3] | IC50 (THP-1 cells [4]) | SMILES | Effect on production of ROS (THP-1 cells [1]) | CC50 at 84 h (in vitro) | Selectivity Index CC50/IC50 (HSV-1 strain KOS) | Effect on NF-κB/AP-1 activity (NF-κB/AP-1) | Effect on LPS-stimulated secretion of IL-1β (IL-1β) | Effect on LPS-stimulated secretion of TNF-α (TNF-α) | Selectivity Index CC50/EC50 [3] | IC50 [5] |
| --- | --- | --- | --- | --- | --- | --- | --- | --- | --- | --- | --- | --- | --- | --- | --- | --- | --- |
| 128 µg/mL (≈ 280 µM) | 32 µg/mL (≈ 70.1 µM) | > 128 µg/mL | > 128 µg/mL | > 128 µg/mL | – | – | – | – | C[C@H]1[C@H](C)CC[C@]2(C(=O)O)CC[C@]3(C)C(=CC[C@@H]4[C@@]5(C)CC[C@H](O)C(C)(C)[C@@H]5CC[C@]43C)[C@H]12 [Compound 11, Ursolic acid] | – | – | – | – | – | – | – | – |
| > 32 µg/mL | > 32 µg/mL | > 32 µg/mL | > 32 µg/mL | > 32 µg/mL | – | 0.96 ± 0.12 µg/mL (≈ 1.52 µM) | – | – | COc1cc(/C=C/C(=O)O[C@H]2CC[C@]3(C)[C@H]4C=C[C@]56OC(=O)[C@@]7(CC[C@@H](C)[C@H](C)[C@H]75)CC[C@@]6(C)[C@]4(C)CC[C@H]3C2(C)C)ccc1O [Compound 12, Tereticornate A] | – | > 210 µg/mL | >218.8 | statistically significant inhibitory potential, stronger than that of prednisone | attenuates the LPS-stimulated secretion of IL-1β | Neither compound 8 nor 12 showed any influence on the secretion of TNF-α | – | – |
| > 64 µg/mL | > 64 µg/mL | > 64 µg/mL | > 64 µg/mL | > 64 µg/mL | – | – | – | – | COc1ccc(-c2cc(=O)c3c(O)c(C)c(OC)cc3o2)cc1 [Compound 9, 8-Demethyleucalyptin] | – | – | – | reduce the activation of NF-κB/AP-1 | – | – | – | – |
| > 64 µg/mL | > 64 µg/mL | > 64 µg/mL | > 64 µg/mL | > 64 µg/mL | – | – | – | – | COc1ccc(-c2cc(=O)c3c(O)c(C)c(OC)c(C)c3o2)cc1 [Compound 8, Eucalyptin] | – | – | – | – | increased the secretion of the IL-1β | Neither compound 8 nor 12 showed any influence on the secretion of TNF-α | – | – |
| > 128 µg/mL | > 128 µg/mL | > 128 µg/mL | > 128 µg/mL | > 128 µg/mL | – | – | 0.73 ± 0.11 µg/mL (≈ 1.4 µM) | – | Cc1cc(=O)c2c(O)cc(O[C@@H]3O[C@H](COC(=O)C4=CC[C@H](C(C)(C)O)CC4)[C@@H](O)[C@H](O)[C@H]3O)cc2o1 [Compound 5, Cypellocarpin C] | – | > 210 µg/mL | – | – | – | – | >287.7 | – |
| > 64 µg/mL | 64 µg/mL (≈ 205 µM) | > 64 µg/mL | > 64 µg/mL | > 64 µg/mL | – | 1.44 ± 0.14 µg/mL (≈ 4.61 µM) | – | – | COc1c(C)c(O)c2c(=O)cc(-c3ccc(O)cc3)oc2c1C [Compound 6, Sideroxylin] | – | > 210 µg/mL | >145.8 | enhance it | – | – | – | – |
| – | – | – | – | 4 µg/mL (≈ 10.3 µM) | – | – | – | – | Clc1ccc(C(Cn2ccnc2)OCc2ccsc2Cl)c(Cl)c1 (centres unmarked) [tioconazole, reference compound] | – | – | – | – | – | – | – | – |
| > 128 µg/mL | 128 µg/mL (≈ 429 µM) | > 128 µg/mL | > 128 µg/mL | > 128 µg/mL | – | – | – | – | COc1cc2oc(-c3ccc(O)cc3)cc(=O)c2c(O)c1C [Compound 7, 8-Demethylsideroxylin] | – | – | – | enhance it | – | – | – | – |

Second part, the molecule before the results:

| SMILES | MIC (S. aureus ATCC 29213) | MIC (B. cereus ATCC 11778) | MIC (E. coli ATCC 25922) | MIC (P. aeruginosa ATCC 27853) | MIC (C. albicans ATCC 10231) | MIC range against both Gram-positive strains [2] | IC50 (HSV-1 strain KOS) | EC50 [3] | IC50 (THP-1 cells [4]) | Effect on production of ROS (THP-1 cells [1]) | CC50 at 84 h (in vitro) | Selectivity Index CC50/IC50 (HSV-1 strain KOS) | Effect on NF-κB/AP-1 activity (NF-κB/AP-1) | Effect on LPS-stimulated secretion of IL-1β (IL-1β) | Effect on LPS-stimulated secretion of TNF-α (TNF-α) | Selectivity Index CC50/EC50 [3] | IC50 [5] |
| --- | --- | --- | --- | --- | --- | --- | --- | --- | --- | --- | --- | --- | --- | --- | --- | --- | --- |
| CCC(C)C(=O)c1c(O)cc(OC)c(C)c1O (centres unmarked) [Compound 3, Pulverulentone B] | 32 µg/mL (≈ 134 µM) | 8 µg/mL (≈ 33.6 µM) | > 32 µg/mL | > 32 µg/mL | > 32 µg/mL | 8 to 32 µg/mL | – | – | – | no significant antioxidant potential | – | – | – | – | – | – | – |
| Nc1nc2c(ncn2COCCO)c(=O)[nH]1 [Acyclovir, acyclovir, reference compound] | – | – | – | – | – | – | 1.92 ± 0.23 µg/mL (≈ 8.53 µM) | 1.75 ± 0.33 µg/mL (≈ 7.77 µM) | – | – | > 210 µg/mL | – | – | – | – | – | – |
| CN(C)[C@@H]1C(O)=C(C(N)=O)C(=O)[C@@]2(O)C(O)=C3C(=O)c4c(O)cccc4[C@@](C)(O)[C@H]3C[C@@H]12 [tetracycline, reference compound] | 0.125 µg/mL (≈ 0.281 µM) | 0.03 µg/mL (≈ 0.0675 µM) | 1 µg/mL (≈ 2.25 µM) | 16 µg/mL (≈ 36 µM) | – | – | – | – | – | – | – | – | – | – | – | – | – |
| c1cc2c(cc1[C@H]1OC[C@H]3[C@@H]1CO[C@@H]3c1ccc3c(c1)OCO3)OCO2 [Compound 10, Sesamin] | > 32 µg/mL | > 32 µg/mL | > 32 µg/mL | > 32 µg/mL | > 32 µg/mL | – | – | – | – | – | – | – | – | – | – | – | – |
| C=C(C)C1CCC(=C)C2(O)CCC3(C)C(CC(C)C)c4c(O)c(C=O)c(O)c(C=O)c4OC3C12 (centres unmarked) [Compound 4, Eucalyptal A] | > 128 µg/mL | 32 µg/mL (≈ 68.3 µM) | > 128 µg/mL | > 128 µg/mL | > 128 µg/mL | – | – | – | 1200 nM | – | – | – | – | – | – | – | 1700 nM |
| Cc1c(O)c(C=O)c(O)c(C(=O)CC(C)C)c1O [Compound 2, Grandinol] | 16 µg/mL (≈ 63.4 µM) | 16 µg/mL (≈ 63.4 µM) | > 64 µg/mL | > 64 µg/mL | > 64 µg/mL | 8 to 32 µg/mL | 1.23 ± 0.13 µg/mL (≈ 4.88 µM) | – | – | significantly increased the production of ROS | > 210 µg/mL | >170.7 | – | – | – | – | – |
| C=C1CC[C@H](C(C)(C)O)/C=C/[C@@H](C)CCC1=O [Compound 1, Litseagermacrane] | > 64 µg/mL | 64 µg/mL (≈ 271 µM) | > 64 µg/mL | > 64 µg/mL | > 64 µg/mL | – | – | 1.25 ± 0.2 µg/mL (≈ 5.29 µM) | – | no significant antioxidant potential | > 210 µg/mL | – | – | – | – | >168.0 | – |
